From patent US20140187570A1, “NOVEL FORMULATIONS OF PYRIMETHANIL, AND THEIR USE IN TREATMENT OF CROPS” (XEDA INTERNATIONAL, priority 2011, published 2014)

How the values were obtained:
[1] = test system: Geotrichum candidum; test: Fungicidal activity on treated oranges (Example 5); assay type: in vivo; details: oranges treated with pyrimethanil alone
Method: Oranges are separated into three lots, and are treated as follows: • Lot 1 (control): oranges not treated; • Lot 2: oranges treated with pyrimethanil alone; • Lot 3: oranges treated with 250 g of the formulation according to Example 2 diluted in one hectolitre of water.

[2] = test system: Monilinia fructicola strain resistant to pyrimethanil; test: In vitro growth inhibition of the halo on PDA Petri dishes, resistant strain; assay type: cell-based; details: dose 250 ml/hl
Method: The object of the study was to determine the efficacy of combinations according to the invention against the phytopathogenic fungus Monilinia fructicola, compared to pyrimethanil alone.
The efficacy of the combinations against Monilinia fructicola was determined by determining the inhibition of growth of the halo in accordance with various general methods (ISO 6887: 2003; ISO 7218: 2007; ISO 7954: 1987).
The samples were added to the artificial medium and were mixed gently prior to the solidification of the agar solution.
A small quantity of fungal spores was placed at the centre of the potato dextrose agar (PDA) in Petri dishes at 25±1° C. for 5-6 days. At the end of the incubation, the inhibition of the halo formed was measured, compared with untreated PDA Petri dishes (control).
The results are expressed as the percentage of incidence of the infestation, and the percentage of efficacy of the product tested.
Monilinia fructicola—Strain Resistant to Pyrimethanil: […]

## Cc1cc(C)nc(Nc2ccccc2)n1 [pyrimethanil alone, 2-anilino-4,6-dimethylpyrimidine]
[1]
  level of Geotrichum candidum compared with control lot: same level of Geotrichum candidum as the control lot
[2]
  Efficacy (%): 45%
